Reference: patent US20160186068A1, “METHODS AND SYSTEMS FOR PROCESSING CELLULOSIC BIOMASS” (SHELL OIL COMPANY, priority 2014, published 2016)
Read-outs that look alike come from different tables or passages of the source. Blank lines part the entries; values can stand above or below the molecule they belong to.

Experiments:
[1] = MIBC re-extraction (step #2) of aqueous lower layer from initial MIBC extraction (Example 4); assay type: physicochemical; conditions: for Extr #2 % extract / Extr #2 K UL/LL: MIBC re-extraction (step #2); for Extr #2 K UL/LL / Extr #2 LL-wt %: one part MIBC by weight, 25° C.; for Extr #2 LL-wt %: lower layer after MIBC re-extraction (step #2); for extraction from aqueous lower layer by MIBC (in words): MIBC re-extraction, GC results
[2] = as above; assay type: physicochemical; conditions: for Extr #1 K UL/LL: initial (step #1) MIBC extraction; for Extr #1 LL-wt %: lower aqueous layer after initial (step #1) MIBC extraction
Procedure: One part of the upper organic-rich upper layer from Example 3 was removed prior to distillation, extracted with one part by weight of MIBC solvent, by shaking for 3 minutes in a vial via mechanical shaker, followed by allowing to phase separate overnight at 25° C.
Extraction efficiency as measured by the partition coefficient K increased with increasing carbon number for the light alcohol. Glycols, including ethylene glycol (EG) and propylene glycol (PG) were not extracted.

[3] = Comparison of extraction solvents on simulated reaction product mixture (Examples 5A-5D); conditions: for Kow: one part by weight, 2 weight percent each component in water, 25° C.
Procedure: The reaction product mixture was extracted with one part of by weight solvent, with mixing for a minimum of three minutes, followed by phase separation overnight at 25° C.

[4] = MIBC extraction of reactor product: partition between upper MIBC-rich organic layer and lower aqueous layer (Example 3)
Procedure: (§1) The injector temperature was set at 250° C., and the detector temperature was set at 300° C.
Partition coefficients for the concentration by weigh in the upper MIBC-rich organic layer, vs. the lower aqueous layer, are reported in Table 2.

[5] = Solubility of MPP in deionized water (Example 5E solution); assay type: physicochemical; conditions: 1 wt % solution, room temperature, judged by turbidity
[6] = Toluene extraction of reactor product: partitioning between upper organic and lower aqueous phases (Example 2); conditions: for Kow UL/LL, partition coefficients for toluene extraction: toluene extractant, stirred at 150° C. for 2 hours, upper toluene-rich phase / lower aqueous-rich phase
Procedure: as §1
Reaction cycles entailed 1 hour at 160° C., followed by 1 hour at 190° C., followed by 3 hours at 240° C. Six cycles of wood addition were effected, which simulated the first hydrothermal reaction. This was followed by heating overnight at 270° C. under 52 bar of H2, which simulated the second hydrothermal reaction to further hydrotreat and complete conversion of various compounds in the first reaction product, which the examples may refer to as intermediates.
Stirring was then stopped, and the reactor allowed to cool. […] Catalyst was left on the reactor bottom.

[7] = Extraction of phenols from 1% aqueous solution with toluene or heptane (Examples 5E-5H)
[8] = Ex 5A, toluene extraction solvent
[9] = Ex 5C, 1:1 MPP/MIBC extraction solvent
[10] = Ex 5D, meta-cresol extraction solvent
[11] = Example 5C, MPP/MIBC extraction solvent
[12] = Example 5B, MPP as extraction solvent
[13] = concentration by weight in upper MIBC-rich organic layer vs. lower aqueous layer
[14] = Example 5F, 1% MPP in water extracted with heptane
[15] = Example 5D, m-cresol as extraction solvent
[16] = Example 5G, 1% solution of m-cresol extracted with toluene

- Extr #2 % extract [1]: 71%
- Extr #2 K UL/LL [1]: 1.429
- Extr #2 LL-wt % [1]: 0.10 wt %
Molecule: 1-propanol [PrOH]

Molecule: OCCO [EG, ethylene glycol]
- Extr #1 K UL/LL [2]: 0.37
- Extr #1 LL-wt % [2]: 0.20 wt %
- Extr #2 % extract [1]: −43%
- Extr #2 K UL/LL [1]: 0.045
- extraction from aqueous lower layer by MIBC (in words) [1]: not extracted
- Extr #2 LL-wt % [1]: 0.29 wt %
- Kow [3, 8]: 0.000
- Kow ([3]; Ex 5B, MPP extraction solvent): 0.037
- Kow [3, 9]: 0.079
- Kow [3, 10]: 0.036

- Extr #2 % extract [1]: 39%
- Extr #2 LL-wt % [1]: 0.16 wt %
Molecule: CCO [EtOH, ethanol]

- co-solvent lost to aqueous [3, 11]: 1%
- MIBC extraction partition coefficient [4]: 48.12
Molecule: CC(C)CC(C)O (centres unmarked) [MIBC, methylisobutylcarbinol]

Molecule: CCCc1ccc(O)c(OC)c1 [MPP, 2-methoxy-4-propylphenol]
- solubility in deionized water [5]: only partial solubility
- Kow UL/LL, partition coefficients for toluene extraction [6]: 33.59
- amount lost to the aqueous phase [3, 12]: 0.15 wt %
- apparent partition coefficient between organic and aqueous layers [3, 12]: 612
- extractant lost to the aqueous phase [3, 11]: 0.12 wt %
- measured in the final organic extract [3, 11]: 55 wt %
- oil/water partition coefficient [3, 11]: 462
- MIBC extraction partition coefficient [4, 13]: >50
- partition coefficient, weight percent in organic layer extract vs. remaining lower layer aqueous fraction ([7]; Example 5E, 1 wt % MPP in deionized water extracted with one part toluene): 161.7
- recovered by extraction from the aqueous phase ([7]; Example 5E, MPP as a 1% solution, toluene as solvent): More than 99%
- apparent partition coefficient [7, 14]: 76
- removed down to (residual in water) [7, 14]: 0.08 wt %

Molecule: CO [MeOH, Methanol]
- Extr #1 LL-wt % [2]: 0.18 wt %
- Extr #2 % extract [1]: 16%
- Extr #2 LL-wt % [1]: 0.15 wt %
- MIBC extraction partition coefficient [4, 13]: 0.30

- Extr #1 K UL/LL [2]: 0.33
- Extr #1 LL-wt % [2]: 0.38 wt %
- Extr #2 % extract [1]: −30%
- Extr #2 K UL/LL [1]: 0.294
- extraction from aqueous lower layer by MIBC (in words) [1]: not extracted
- Extr #2 LL-wt % [1]: 0.49 wt %
- Kow [3, 8]: 0.013
- Kow ([3]; Ex 5B, MPP extraction solvent): 0.084
- Kow [3, 9]: 0.042
- Kow [3, 10]: 0.197
- MIBC extraction partition coefficient [4]: 0.33
Molecule: CC(O)CO (centres unmarked) [PG, 1,2-propylene glycol]

Molecule: Cc1cccc(O)c1 [cresol, meta-cresol]
- apparent partition coefficient between oil and water [3, 15]: 39
- lost to the aqueous layer [3, 15]: 2.7 wt %
- apparent partition coefficient between organic and aqueous phases [7, 16]: 20.8
- residual left in the aqueous layer [7, 16]: 0.05 wt %
- remained with the aqueous layer ([7]; Example 5H, 1% m-cresol solution extracted with heptane): 0.56 wt %

- extraction solvent lost to the aqueous phase ([7]; Example 5F, heptane extraction): 0.07 wt %
- extraction solvent lost to the aqueous layer ([7]; Example 5H, heptane extraction): 0.015%
Molecule: CCCCCCC [heptane]

Molecule: Cc1ccccc1 [toluene]
- extraction solvent lost to the aqueous phase ([7]; Example 5G, toluene extraction): 0.04 wt %
- loss of toluene extraction solvent ([7]; toluene extraction, lost to the lower layer): less than 1%

Molecule: Cc1cccc(C)c1O [xylenol, 2,6-xylenol]
- collected in the upper layer (toluene phase) distillation, relative to the bottom phase distillation ([6]; after toluene extraction, separate distillation of phases): 99.5%
- Kow UL/LL, partition coefficients for toluene extraction [6]: 51.79
- MIBC extraction partition coefficient [4, 13]: 87.26
